Entries after “also recorded” stand apart in the source; their conditions may differ.
How the values were obtained:
[1] = tested on: high-fat diet fed obese mice; assay: Effects of FXR agonists on diet induced obese mice; assay type: in vivo, C57BL mice; conditions: 10, 30, 100 mg/kg twice a day orally; for body fat mass: QMR; for NEFA / cholesterol / glycerol / insulin / triglyceride: serum
Protocol: Methods: Male 20 to 25 g C57BL mice (Charles River, Indianapolis, Ind.) were housed at 72° F. and 50% relative humidity with a 12 h light and dark cycle and fed with standard rodent chow (Purina 5001, Harlan Teklad, Indianapolis, Ind.) or a high-fat diet (TD93075, Harlan Teklad, Indianapolis, Ind.) for eight weeks. After three weeks, mice on high-fat diet were randomized to vehicle or treatment groups based on fasting glucose and body weight. Starting from the fifth week, mice were given either vehicle or the compound in Example 1 (10, 30, and 100 mg/kg) or the compound in Example 5 (10, 30, 100 mg/kg) twice a day orally. Mice on the standard rodent chow were also given vehicle as a control. Body composition was measured using the quantitative magnetic resonance (QMR) method before and at the end of compound treatment. […] Serum chemistry levels were measured using the Instrumentation Laboratory Ilab600TM clinical chemistry analyzer (Instrumentation Laboratory, Boston, Mass.).

[2] = target: T1, Human FXRα Ligand Binding Domain (Homo sapiens, UniProt Q96RI1); assay: FXR Cofactor Binding Assay (FXR LBD / SRC-1 peptide, time resolved fluorescence); conditions: FXRα LBD with biotinylated SRC-1 (LCD2, 676-700) peptide, read-out: Activity (pEC50) (converted)
T1 construct: polyhistidine (pRSET-A vector) (N); made in house; host or cells: E. coli BL21 (DE3), pRSET-A vector
T1 sequence (Q96RI1 237-472 isoform Q96RI1-2): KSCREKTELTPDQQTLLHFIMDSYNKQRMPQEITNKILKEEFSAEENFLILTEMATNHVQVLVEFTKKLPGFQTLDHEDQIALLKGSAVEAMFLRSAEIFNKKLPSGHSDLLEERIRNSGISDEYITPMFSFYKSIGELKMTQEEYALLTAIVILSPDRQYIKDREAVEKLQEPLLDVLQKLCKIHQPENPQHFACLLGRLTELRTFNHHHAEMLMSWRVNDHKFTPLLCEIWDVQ
Excerpt: Determination of a ligand mediated cofactor peptide interaction to quantify ligand binding to the nuclear receptor Farnesoid X Receptor (FXR). The method measures the ability of putative ligands to modulate the interaction between the purified bacterial expressed FXRα ligand binding domain (LBD) and a synthetic biotinylated peptide based on residues 676-700 of steroid receptor coactivator-1 (SRC-1) (LXXLL-containing domain-2 where L is the amino acid leucine and X indicates any other amino acid (LCD2), 676-700). The sequence of the SRC-1 peptide used is as published in Iannone, M. A., et al., 2001 Cytometry 44:326-337 where the N-terminus was biotinylated (B) and the C-terminus was amidated. Detection of the associated complex was measured by time resolved fluorescence (TRF). The purified LBD of FXR was labeled with biotin then mixed with stoichiometric amounts of allophycocyanin (APC) labeled streptavidin (Molecular Probes). The biotinylated peptide was then mixed with a ½ stoichiometric amount of europium labeled streptavidin (Wallac Inc). Each was then blocked with a 5 fold excess of biotin and allowed to equilibrate for 15 min. Equimolar amounts of receptor and peptide were mixed together and were allowed to equilibrate for at least 30 min prior to the addition to either a variable or constant concentrations of the sample for which the affinity is to be determined. After equilibration, the time-resolved fluorescent signal was quantitated using a fluorescent plate reader. The affinity of the test compound was estimated from a plot of fluorescence versus concentration of test compound added.
A basal level of FXR: peptide formation is observed in the absence of added ligand. Ligands that promote the complex formation induce a concentration-dependent increase in time-resolved fluorescent signal. Compounds which bind equally well to both monomeric FXR and to the FXR: peptide complex would be expected to give no change in signal, whereas ligands which bind preferentially to the monomeric receptor would be expected to induce a concentration-dependent decrease in the observed signal.
Human FXRα Ligand Binding Domain (FXRα LBD) was expressed in E. coli strain BL21 (DE3) as an amino-terminal polyhistidine tagged fusion protein. Expression was under the control of an isopropyl-13-D-thiogalactopyranoside (IPTG) inducible T7 promoter. DNA encoding this recombinant protein is subcloned into the pRSET-A expression vector (Invitrogen). The coding sequence of Human FXRα LBD was derived from Genbank accession number U 68233 (amino acids 237 to 472).
Routinely, 30-40 g cell paste (equivalent to 2-3 liters of the fermentation batch) was resuspended in 200-250 mL Tris buffered saline (TBS), pH 7.2 (25 mM Tris-hydroxymethylamino methane (Tris), 150 mM sodium chloride). Cells were lysed by passing 3 times through a French Press and cell debris was removed by centrifugation (30 minutes, 20,000×gravity, 4° C.). The cleared supernatant was filtered through course pre-filters, and TBS, pH 7.2, 500 mM imidazole was added to obtain a final imidazole concentration of 50 mM. This lysate was loaded onto a column (6×8 cm) packed with Sepharose [Ni^|| charged]Chelation resin (Pharmacia) and pre-equilibrated with TBS pH 7.2/50 mM imidazole. After washing to baseline absorbance with equilibration buffer, the column was washed with one column volume of TBS pH 7.2 containing 90 mM imidazole. FXRα LBD was eluted directly with 365 mM imidazole. Column fractions were pooled and dialyzed against TBS, pH 7.2, containing 0.5 mM EDTA and 5 mM DTT. The dialyzed protein sample was concentrated using Centri-prep 10 K (Amicon) and subjected to size exclusion, using a column (3×90 cm) packed with Sepharose S-75 resin (Pharmacia) pre-equilibrated with TBS, pH 7.2, containing 0.5 mM ethylene diamine tetraacetic acid (EDTA) and 5 mM dithiothreitol (DTT). […]

[3] = tested on: rodent models of hepatic fibrosis; conditions: multiple rodent models; cited from earlier work
[4] = tested on: hepatic stellate cells (HSC); conditions: cultured HSCs; cited from earlier work
[5] = tested on: db/db mice; conditions: cited from earlier work
[6] = tested on: mice on high-fat diet; conditions: cited from earlier work
[7] = tested on: ob/ob mice; conditions: male ob/ob mice; 30 mg/kg intraperitoneally; cited from earlier work
[8] = tested on: bile duct-ligated mouse; conditions: bile duct-ligated mouse model; cited from earlier work
[9] = tested on: mice on a lithogenic diet; conditions: cited from earlier work
[10] = db/db mice, oral 30 mg/kg, bid, serum
[11] = 100 mg/kg twice a day orally, 100 mg/kg

With `CC(C)c1onc(-c2c(Cl)cccc2Cl)c1COc1ccc(-c2ccc3nc(C(=O)O)ccc3c2)cc1` [Example 1, 6-[4-({[3-(2,6-Dichlorophenyl)-5-(1-methylethyl)-4-isoxazolyl]methyl}oxy)phenyl]-2-quinolinecarboxylic Acid] the serum glucose [1] was “decreased”, the body fat mass [1] was “decreased” and the NEFA [1] was “decreased”. The cholesterol [1] was “decreased”, the glycerol [1] was “decreased” and the insulin [1] was “decreased”. For the same compound, the triglyceride [1] was “decreased”.

With `CC(C)c1onc(-c2c(Cl)cccc2Cl)c1COc1ccc(-c2ccc3cc(C(=O)O)ncc3c2)cc1` [Example 5, 7-[4-({[3-(2,6-Dichlorophenyl)-5-(1-methylethyl)-4-isoxazolyl]methyl}oxy)phenyl]-3-isoquinolinecarboxylic acid] the EC50 [2] was 0.102 to 1 µM, the serum glucose [1] was “decreased” and the body fat mass [1] was “decreased”. For the same compound, the NEFA [1] was “decreased”, the cholesterol [1] was “decreased” and the glycerol [1] was “decreased”. The insulin [1] was “decreased” and the triglyceride [1] was “decreased”.

In the case of `CC[C@H]1[C@@H](O)[C@@H]2[C@H](CC[C@]3(C)[C@@H]([C@H](C)CCC(=O)O)CC[C@@H]23)[C@@]2(C)CC[C@@H](O)C[C@@H]12` [Example 6EtCDCA, 6-ethyl-chenodeoxycholic acid], the hepatic fibrosis [3] is given as “prevent development and promote resolution”, the “expression of α1(I)collagen” value [4] is given as “decreased” and the “expression of α-smooth muscle actin” value [4] is given as “decreased”.

Compound `CC(C)c1onc(-c2c(Cl)cccc2Cl)c1COc1ccc(-c2ccc3c(C(=O)O)nccc3c2)cc1` [Example 36, 6-[4-({[3-(2,6-Dichlorophenyl)-5-(1-methylethyl)-4-isoxazolyl]methyl}oxy)phenyl]-1-isoquinolinecarboxylic acid] has an EC50 [2] of 0.102 to 1 µM.

`Cc1nc(C(=O)O)nc2ccc(-c3ccc(OCc4c(-c5c(Cl)cccc5Cl)noc4C(C)C)cc3)cc12` [Example 37, 6-[4-({[3-(2,6-Dichlorophenyl)-5-(1-methylethyl)-4-isoxazolyl]methyl}oxy)phenyl]-4-methyl-2-quinazolinecarboxylic acid] gave an EC50 [2] of 0.102 to 1 µM.

`CC(C)c1onc(-c2c(Cl)cccc2Cl)c1CSc1ccc(-c2ccc3nc(C(=O)O)ccc3c2)cc1` [Example 38, 6-[4-({[3-(2,6-Dichlorophenyl)-5-(1-methylethyl)-4-isoxazolyl]methyl}thio)phenyl]-2-quinolinecarboxylic acid] gave an EC50 [2] of 0.102 to 1 µM.

In the case of `CC(C)c1onc(-c2c(Cl)cccc2Cl)c1COc1ccc(-c2ccc3nc(C(=O)O)cnc3c2)cc1` [Example 39, 6-[4-({[3-(2,6-Dichlorophenyl)-5-(1-methylethyl)-4-isoxazolyl]methyl}oxy)phenyl]-2-quinoxalinecarboxylic acid], the EC50 [2] is reported as 0.102 to 1 µM.

For `CC(C)c1onc(-c2c(Cl)cccc2Cl)c1COc1ccc(/C=C/c2cccc(C(=O)O)c2)c(Cl)c1` [GW4064], the “glycogen storage in the liver” value ([5]; db/db mice) is given as “enhanced”, the “insulin signalling in the liver” value ([5]; db/db mice) is given as “enhanced” and the blood glucose ([5]; db/db mice, oral 30 mg/kg, bid) is given as “decreased”. The “serum β-hydroxybutyrate” value ([5]; db/db mice, oral 30 mg/kg, bid) was “decreased”, the NEFA [5, 10] was “decreased” and the total cholesterol [5, 10] was “decreased”. The triglyceride [5, 10] was “decreased”, the hyperglycemia ([5]; diabetic db/db mice) was “significantly improved” and the hyperlipidemia ([5]; diabetic db/db mice) was “significantly improved”. The “body weight / high-fat diet induced body weight gain” value [6, 11] was “decrease; also recorded: reduced”, the serum glucose [6, 11] was “decreased” and the serum insulin [6, 11] was “decreased”. For the same compound, the serum triglyceride [6, 11] was “decreased”, the glucose tolerance ([6]; 100 mg/kg twice a day orally, GTT, 100 mg/kg) was “corrected; also recorded: improve” and the liver triglyceride content ([6]; 100 mg/kg twice a day orally) was “reduced”. The body fat mass [6] was “decrease”, the total cholesterol ([6]; serum) was “decrease” and the body weight [7] was “did not alter”. For the same compound, the fasting blood glucose [7] was “no effect”, the food intake [7] was “did not alter” and the glucose tolerance [7] was “improved”. For the same compound, the insulin concentration [7] was “decreased”, the insulin sensitivity [7] was “enhanced” and the bacterial overgrowth [8] was “decreased”. The mucosal barrier [8] was “improved”, the “translocation of bacteria to mesenteric lymph nodes” value [8] was “decreased” and the “formation of cholesterol crystals in the bile” value [9] was “prevented”.

From patent publication US20100120775A1, “Farnesoid X Receptor Agonists” (SMITHKLINE BEECHAM CORPORATION, priority 2006, published 2010)
